Patent US20240041042A1, “1-(PYRIDYL)-5-AZINYLPYRAZOLE DERIVATIVES, AND THEIR USE FOR CONTROL OF UNDESIRED PLANT GROWTH” (Bayer Aktiengesellschaft, priority 2020, published 2024)
Read-outs that look alike come from different tables or passages of the source.

Columns and labels:
Format in all cases: in vivo
[1] = system: Verconica persica (VERPE); assay: Pre-emergence herbicidal action against VERPE
Outline: (§1)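 Greenhouse pot trial: seeds sown, soil-covered, sprayed before emergence with compound in water (0.5% additive; 600 l/ha; ≤320 g/ha). Scoring visual, ~3 weeks, 0–100% scale vs untreated.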

[2] = system: Lolium rigidum (LOLRI); assay: Post-emergence herbicidal action against LOLRI; conditions: dosage 80 g/ha
Outline: (§2)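 Doses of 320 g/ha or lower, suffixes a, b and c marking different dosages, were applied post-emergence at the one-leaf stage in 600 l/ha water with 0.5% additive. Damage was assessed visually after about 3 weeks in the greenhouse.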

[3] = system: Alopecurus myosuroides (ALOMY); assay: Pre-emergence herbicidal action against ALOMY; conditions: scored visually after about 3 weeks, 100% = plants have died
Outline: as §1

[4] = system: Viola tricolor (VIOTR); assay: Post-emergence herbicidal action against VIOTR; conditions: 80 g/ha
Outline: as §2

[5] = system: Avena fatua (AVEFA); assay: Pre-emergence herbicidal action against AVEFA; conditions: 320 g/ha, visual scoring after about 3 weeks vs untreated controls
Outline: as §1

[6] = system: Viola tricolor (VIOTR); assay: Pre-emergence herbicidal action against VIOTR
Outline: as §1

[7] = system: Alopecurus myosuroides (ALOMY); assay: Post-emergence herbicidal action against ALOMY; conditions: 80 g/ha, visual rating about 3 weeks after treatment vs untreated controls (100% = plants have died, 0% = like control plants)
Outline: as §2

[8] = system: Lolium rigidum (LOLRI); assay: Pre-emergence herbicidal action against LOLRI; conditions: dosage 320 g/ha
Outline: as §1

[9] = system: Amaranthus retroflexus (AMARE); assay: Pre-emergence herbicidal action against AMARE; conditions: visual scoring after about 3 weeks vs untreated controls
Outline: as §1

[10] = system: Avena fatua (AVEFA); assay: Post-emergence herbicidal action against AVEFA; conditions: 80 g/ha, visual rating about 3 weeks after treatment
Outline: as §2

[11] = system: Oryza sativa (ORYSA); conditions: crop plant compatibility
Outline: (§3)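 Greenhouse crops in sandy loam sprayed post-emergence at the one-leaf stage, 2–3 weeks after sowing, with WP or EC formulations in water plus 0.5% additive at 600 l/ha. Damage rated visually about 3 weeks later versus untreated controls (0% = like control, 100% = dead); suffixes a–c denote different doses.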

[12] = system: Zea mays (ZEAMX); conditions: for Post-emergence action against ZEAMX in % (crop plant compatibility): 20 g/ha, effect in comparison to untreated controls; for Post-emergence action against ZEAMX in %: crop plant compatibility, effect vs untreated controls
Outline: as §3

[13] = system: Brassica napus (BRSNW); conditions: 80 g/ha, crop plant compatibility, in comparison to untreated controls
Outline: (§4)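 Scoring: visual, % of untreated control, about 3 weeks after a pre-emergence application to the soil surface. Application used WP or EC formulations diluted in water with 0.5% additive at 600 l/ha; dosage levels are marked by suffixes a, b and c.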

[14] = system: Setaria viridis (SETVI); assay: Pre-emergence herbicidal action against SETVI
Outline: as §1

[15] = system: Echinochloa crus-galli (ECHCG); assay: Pre-emergence herbicidal action against ECHCG
Outline: as §1

[16] = system: Echinochloa crus-galli (ECHCG); assay: Post-emergence herbicidal action against ECHCG; conditions: dosage 80 g/ha
Outline: as §2

[17] = system: Zea mays (ZEAMX); conditions: pre-emergence, 80 g/ha, crop plant compatibility, in comparison to untreated controls
Outline: as §4

[18] = system: Matricaria inodora (MATIN); assay: Pre-emergence herbicidal action against MATIN; conditions: dosage 320 g/ha
Outline: as §1

[19] = system: Polygonum convolvulus (POLCO); assay: Pre-emergence herbicidal action against POLCO
Outline: as §1

[20] = system: Amaranthus retroflexus (AMARE); assay: Post-emergence herbicidal action against AMARE
Outline: as §2

[21] = system: Digitaria sanguinalis (DIGSA); assay: Pre-emergence herbicidal action against DIGSA
Outline: as §1

[22] = system: Verconica persica (VERPE); assay: Post-emergence herbicidal action against VERPE; conditions: dosage 80 g/ha
Outline: as §2

[23] = system: Setaria viridis (SETVI); assay: Post-emergence herbicidal action against SETVI; conditions: dosage 80 g/ha
Outline: as §2

[24] = system: Triticum aestivum (TRZAS); conditions: crop plant compatibility, effect vs untreated controls
Outline: as §3

[25] = system: Abutilon theophrasti (ABUTH); assay: Post-emergence herbicidal action against ABUTH; conditions: 80 g/ha, visual rating about 3 weeks after treatment vs untreated controls (100% = plants have died, 0% = like control plants)
Outline: as §2

[26] = system: Oryza sativa (ORYSA); conditions: pre-emergence, crop plant compatibility, in comparison to untreated controls
Outline: as §4

[27] = system: Triticum aestivum (TRZAS); conditions: pre-emergence, crop plant compatibility, in comparison to untreated controls
Outline: as §4

[28] = system: Pharbitis purpurea (PHBPU); assay: Post-emergence herbicidal action against PHBPU; conditions: dosage 80 g/ha
Outline: as §2

[29] = 20 g/ha, effect vs untreated controls
[30] = 80 g/ha, effect in comparison to untreated controls

| Post-emergence action against ORYSA in % [11, 29] [%] | Post-emergence action against ORYSA in % [11, 30] [%] | Post-emergence action against ZEAMX in % (crop plant compatibility) [12] [%] | Post-emergence action against ZEAMX in % ([12]; 80 g/ha) [%] | Pre-emergence action against BRSNW in % [13] [%] | Pre-emergence action against ZEAMX in % [17] [%] | SMILES | Pre-emergence action against VERPE in % ([1]; dosage 320 g/ha) [%] | Post-emergence action against LOLRI in % [2] [%] | Pre-emergence action against ALOMY ([3]; 320 g/ha) [%] | Pre-emergence action against AVEFA in % [5] [%] | Pre-emergence action against VIOTR in % ([6]; 320 g/ha, Viola tricolor) [%] | Pre-emergence action against VIOTR in % ([6]; dosage 80 g/ha) [%] | Post-emergence action against ALOMY in % [7] [%] | Pre-emergence action against LOLRI in % [8] [%] | Pre-emergence action against AMARE in % ([9]; 320 g/ha) [%] | Post-emergence action against AVEFA in % [10] [%] | Pre-emergence action against SETVI in % ([14]; dosage 320 g/ha) [%] | Pre-emergence action against ECHCG in % ([15]; dosage 320 g/ha) [%] | Post-emergence action against ECHCG in % [16] [%] | Pre-emergence action against MATIN in % [18] [%] | also measured |
| --- | --- | --- | --- | --- | --- | --- | --- | --- | --- | --- | --- | --- | --- | --- | --- | --- | --- | --- | --- | --- | --- |
| 0 | 10 | 10 | 10 | 10 |  | CCOC(=O)C(C)Oc1nn(-c2ccccn2)c(-c2ccc(F)nc2)c1I (stereo not drawn) [Example I-101] | 100 | 90 | 100 | 90 | 100 | 80 | 90 | 100 | 100 | 80 | 100 | 90 |  |  | Post-emergence action against VIOTR in % [4]: 80%; Pre-emergence action against SETVI in % ([14]; dosage 80 g/ha): 90% |
| 0 | 10 | 10 | 20 | 20 | 10 | COC(=O)[C@@H](C)Oc1nn(-c2ncccc2Cl)c(-c2ccc(F)nc2)c1Br [Example I-24] | 100 | 90 | 100 | 100 | 100 | 90 | 90 | 100 | 100 | 90 | 90 | 100 | 80 | 90 | Pre-emergence action against VERPE in % ([1]; dosage 80 g/ha): 80%; Pre-emergence action against ALOMY ([3]; 80 g/ha): 100%; Pre-emergence action against AMARE in % ([9]; 80 g/ha): 90%; Pre-emergence action against POLCO in % ([19]; dosage 80 g/ha): 90%; Pre-emergence action against POLCO in % ([19]; dosage 320 g/ha): 90% |
| 0 | 10 | 10 |  |  |  | O=C(COc1nn(-c2ccccn2)c(-c2ccc(F)nc2)c1Cl)NS(=O)(=O)CC(F)(F)F [Example I-119] |  |  | 100 | 80 | 90 | 80 | 90 | 100 | 100 |  | 100 | 100 | 80 | 90 | Post-emergence action against AMARE in % ([20]; 80 g/ha, visual rating about 3 weeks after treatment vs untreated controls (100% = plants have died, 0% = like control plants)): 90%; Pre-emergence action against DIGSA in % ([21]; 80 g/ha, visual scoring after about 3 weeks vs untreated controls): 100%; Pre-emergence action against DIGSA in % ([21]; dosage 320 g/ha): 100%; Post-emergence action against VERPE in % [22]: 80%; Post-emergence action against SETVI in % [23]: 80%; Post-emergence action against TRZAS in % ([24]; 20 g/ha): 20%; Post-emergence action against ABUTH in % [25]: 80%; Pre-emergence action against ORYSA in % ([26]; 80 g/ha): 10%; Pre-emergence action against TRZAS in % ([27]; 80 g/ha): 20%; Post-emergence action against PHBPU in % [28]: 80%; Pre-emergence action against ECHCG in % ([15]; dosage 80 g/ha): 80%; Pre-emergence action against POLCO in % ([19]; dosage 80 g/ha): 80%; Pre-emergence action against POLCO in % ([19]; dosage 320 g/ha): 90% |
|  | 0 |  | 10 |  | 20 | O=C(O)COc1nn(-c2ccnc(F)c2)c(-c2ccc(F)nc2)c1Br [III-02] |  |  |  |  |  |  |  |  | 80 |  | 80 |  |  |  | Post-emergence action against AMARE in % ([20]; 320 g/ha, visual rating about 3 weeks after treatment): 80%; Post-emergence action against ORYSA in % ([11]; 320 g/ha, effect in comparison to untreated controls): 20%; Post-emergence action against TRZAS in % ([24]; 80 g/ha): 20%; Post-emergence action against ZEAMX in % ([12]; 320 g/ha): 20%; Pre-emergence action against ORYSA in % ([26]; 80 g/ha): 0%; Pre-emergence action against ORYSA in % ([26]; 320 g/ha): 0%; Pre-emergence action against TRZAS in % ([27]; 80 g/ha): 0%; Pre-emergence action against TRZAS in % ([27]; 320 g/ha): 20% |
